We go through eight compounds from ChEMBL document CHEMBL3286186, “Design of α7 nicotinic acetylcholine receptor ligands in quinuclidine, tropane and quinazoline series. Chemistry, molecular modeling, radiochemistry, in vitro and in rats evaluations of a [(18)F] quinuclidine derivative” (Eur J Med Chem, 2014).

For data set [1], the target named is Neuronal acetylcholine receptor subunit alpha-7 (Rattus norvegicus, UniProt Q05941). Nature of the data set: Displacement of [125I]-alpha-bungarotoxin from alpha7 nicotinic acetylcholine receptor in Wistar rat frontal cortex by gamma counting. The class given is tissue-based. (In general: Displacement assays read how much labelled ligand stays bound in the presence of the test substance.)

Data set [2] concerns Brain. Nature of the data set: Biodistribution in Wistar rat brain at 5 +/- 2 MBq, iv after 60 mins by gamma counting. The class given is ADME, organism-based. The note with it: in vivo, 1 h.
In data set [3] the test system is Cortex. Nature of the data set: Biodistribution in Wistar rat cortex at 5 +/- 2 MBq, iv after 60 mins by gamma counting in presence of alpha7 nAChR antagonist methyllycaconitine. The class given is organism-based. The note with it: in vivo, 1 h.
Data set [4] relates to Striatum. Nature of the data set: Biodistribution in Wistar rat striatum at 5 +/- 2 MBq, iv after 60 mins by gamma counting in presence of alpha7 nAChR antagonist methyllycaconitine. The data set is classed as organism-based. To be noted: in vivo, 1 h.
The test system of data set [5] is Hippocampus. Briefly: Biodistribution in Wistar rat hippocampus at 5 +/- 2 MBq, iv after 60 mins by gamma counting in presence of alpha7 nAChR antagonist methyllycaconitine. The class given is organism-based. The note with it: in vivo, 1 h.
Data set [6] deals with Hypothalamus. Nature of the data set: Biodistribution in Wistar rat hypothalamus at 5 +/- 2 MBq, iv after 60 mins by gamma counting in presence of alpha7 nAChR antagonist methyllycaconitine. To be noted: in vivo, 1 h. The data set is classed as organism-based.
For data set [7], the system named is Midbrain. Briefly: Biodistribution in Wistar rat midbrain at 5 +/- 2 MBq, iv after 60 mins by gamma counting in presence of alpha7 nAChR antagonist methyllycaconitine. The data set is classed as organism-based, Brain. To be noted: in vivo, 1 h.
Data set [8] relates to Cerebellum. Briefly: Biodistribution in Wistar rat cerebellum at 5 +/- 2 MBq, iv after 60 mins by gamma counting in presence of alpha7 nAChR antagonist methyllycaconitine. The note with it: in vivo, 1 h. The data set is classed as organism-based.

Chain of Neuronal acetylcholine receptor subunit alpha-7 (Q05941 whole entry): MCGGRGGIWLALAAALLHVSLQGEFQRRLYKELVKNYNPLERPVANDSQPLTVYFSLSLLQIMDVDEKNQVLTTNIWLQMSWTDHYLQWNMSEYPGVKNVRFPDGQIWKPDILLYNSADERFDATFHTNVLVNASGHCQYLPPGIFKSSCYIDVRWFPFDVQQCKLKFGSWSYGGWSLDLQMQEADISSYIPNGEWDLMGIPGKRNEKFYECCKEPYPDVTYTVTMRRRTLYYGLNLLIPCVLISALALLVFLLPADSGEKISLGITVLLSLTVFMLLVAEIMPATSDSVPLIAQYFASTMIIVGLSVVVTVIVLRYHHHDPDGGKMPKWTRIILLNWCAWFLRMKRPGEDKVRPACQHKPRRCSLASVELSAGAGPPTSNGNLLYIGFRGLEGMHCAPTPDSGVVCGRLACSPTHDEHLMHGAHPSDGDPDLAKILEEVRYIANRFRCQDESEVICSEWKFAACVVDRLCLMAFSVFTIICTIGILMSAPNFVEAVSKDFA

`CN1[C@@H]2CC[C@H]1C[C@@H](NC(=O)c1ccc(Br)s1)C2`: in data set [1], the Ki (usually the equilibrium dissociation constant of an inhibitor or competing ligand from its target) was found to be 78 nM.

The compound `CN1[C@@H]2CC[C@H]1C[C@@H](NC(=O)c1ccc3sccc3c1)C2` displayed a Ki in data set [1] of 108 nM. This Ki and that of the compound before are within 1.5-fold of each other.

In data set [1], `CN1[C@@H]2CC[C@H]1C[C@@H](NC(=O)c1ccc(-c3cccs3)s1)C2` had a Ki of 12 nM.

With `CN1[C@@H]2CC[C@H]1C[C@@H](NC(=O)c1cccs1)C2`, in data set [1], the inhibitory constant (Ki) was greater than 1000 nM.

As to `CN1[C@@H]2CC[C@H]1C[C@@H](NC(=O)c1ccc(-c3ccco3)s1)C2`, the affinity in data set [1] corresponds to a Ki of 14 nM.

Take `CN1[C@@H]2CC[C@H]1C[C@@H](NC(=O)c1ccc(Cl)cc1)C2`: the Ki in data set [1] was greater than 1000 nM.

Regarding `O=C(N[C@H]1CN2CCC1CC2)c1ccc([18F])cc1`, the Drug uptake entry in data set [2] is “Active”; in data set [3], “Not Active”; in data set [4], “Not Active”; in data set [5], “Not Active”; in data set [6] it was “Not Active”; in data set [7], “Not Active”. Further, the Drug uptake result in data set [8] is “Not Active”.

In data set [1], `CN1[C@@H]2CC[C@H]1C[C@@H](NC(=O)c1ccc3occc3c1)C2` registered a Ki of 133 nM.
